# Assay results from patent US6046235A, “Sulfur-containing amino acid derivatives” (Santen Pharmaceutical Co., Ltd., priority 1996, dated 2000).
# Target: T1, LTA4 hydrolase (Cavia porcellus, UniProt P19602)
# T1 construct: Lungs were excised from a Hartley guinea pig; from tissue; host or cells: Hartley guinea pig lung, 100,000×g supernatant, 40-70% ammonium sulfate fraction, dialyzed
# T1 sequence (P19602 1-611): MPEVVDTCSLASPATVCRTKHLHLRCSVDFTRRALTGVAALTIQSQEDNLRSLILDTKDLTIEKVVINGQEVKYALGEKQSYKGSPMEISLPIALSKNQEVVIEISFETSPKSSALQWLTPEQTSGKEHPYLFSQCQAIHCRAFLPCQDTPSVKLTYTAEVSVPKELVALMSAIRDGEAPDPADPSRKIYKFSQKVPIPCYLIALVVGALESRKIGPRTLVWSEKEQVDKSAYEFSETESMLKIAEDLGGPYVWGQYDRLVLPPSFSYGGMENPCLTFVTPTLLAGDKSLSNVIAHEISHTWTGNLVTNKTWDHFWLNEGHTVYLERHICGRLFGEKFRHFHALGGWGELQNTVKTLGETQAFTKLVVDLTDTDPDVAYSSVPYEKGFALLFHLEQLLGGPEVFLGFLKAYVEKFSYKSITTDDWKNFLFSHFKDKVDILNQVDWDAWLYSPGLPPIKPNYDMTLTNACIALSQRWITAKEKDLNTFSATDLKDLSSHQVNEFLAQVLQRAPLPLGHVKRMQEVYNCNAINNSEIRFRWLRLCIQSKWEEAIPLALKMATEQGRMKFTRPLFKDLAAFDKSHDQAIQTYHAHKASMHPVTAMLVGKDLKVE
# Experiment: LTA4 hydrolase inhibition (LTB4 formed from LTA4, guinea pig lung enzyme preparation)
# Assay type: biochemical
# Conditions: Table 2; guinea pig lung enzyme preparation; LTA4 63 μM; 37° C., one minute; pH 7.8; read-out: IC50 (concentration required to inhibit LTA4 hydrolase by 50%)
# Description: Effects of the present compounds on LTA4 hydrolase were examined according to the method described in the literature.
# Lungs were excised from a Hartley guinea pig (body weight: 330 g). The lungs were homogenized in phosphoric acid buffer (50 mM, pH 7.4, containing 1 mM ethylenediaminetetraacetic acid (EDTA) and 1 mM dithiothreitol (DTT) having weight three times that of the lungs under ice-cooling. The homogenate was centrifuged at low speed (800×g) for 20 minutes, centrifuged at high speed (10,000×g) for 20 minutes and ultracentrifuged (100,000×g) for 60 minutes to give a supernatant. The supernatant was brought to 40% saturation by adding a saturated aqueous ammonium sulfate solution (pH 7.0-7.2, containing 1 mM DTT) dropwise under ice-cooling and centrifuged at high speed (10,000×g) for 20 minutes. The resulting supernatant was brought to 70% saturation by adding a saturated aqueous ammonium sulfate solution (pH 7.0-7.2, containing 1 mM DTT) dropwise and centrifuged at high speed (10,000×g) for 20 minutes. The obtained pellet was dissolved in 2 ml of Tris-acetic acid buffer (20 mM, pH 7.8, containing 1 mM DTT) and dialyzed in 2 liters of the solution to give the enzyme preparation.
# LTA4 used, which is the substrate, was prepared by hydrolyzing LTA4 methyl ester and dissolved in ethanol.
# In order to examine effects of the present compounds on the enzyme preparation, reactions were performed under the following condition using mixed solutions consisting of the composition shown in Table 1.
# HEPES buffer 50 mM, pH 7.8
# Enzyme preparation 0.4-0.6 mg protein
# Aqueous DTT solution 3 mM
# The above-mentioned solution (50 μl ) was incubated at 37° C. for one minute. To the reaction mixture was added 100 μl of a mixed liquid of acetonitrile-ethanol-acetic acid (150:50:3, volume ratio) under ice-cooling. The mixture was allowed to stand at -20° C. for 30 minutes and centrifuged at high speed (10,000×g) for five minutes to give a supernatant. An amount of LTB4 produced in the supernatant was measured by high-speed liquid chromatography.
# The degree of the inhibitory effect of each test compound on LTA4 hydrolase is expressed by the inhibition rate calculated by the following equation. [formula]
# A: amount of LTB4 formed in the absence of the test compound
# B: amount of LTB4 formed in the presence of the test compound
# Experiments were carried out under the same conditions as those of the above-mentioned "Pharmacological Test".
row,Compound,IC50
1,"CCc1ccc(CSC[C@H](NC(=O)[C@H](C)CSC(=O)c2ccccc2)C(=O)O)cc1 [Compound No. 1-8, (2R)-2-[(2S)-3-(Benzoylthio)-2-methylpropionylamino]-3-(4-ethylbenzylthio)propionic acid]",120 nM
2,"CCCc1ccc(CSC[C@H](NC(=O)[C@H](C)CSC(=O)c2ccccc2)C(=O)O)cc1 [Compound No. 1-9, (2R)-2-[(2S)-3-(Benzoylthio)-2-methylpropionylamino]-3-(4-propylbenzylthio)propionic acid]",170 nM
3,"CC(C)c1ccc(CSC[C@H](NC(=O)[C@H](C)CSC(=O)c2ccccc2)C(=O)O)cc1 [Compound No. 1-10, (2R)-2-[(2S)-3-(Benzoylthio)-2-methylpropionylamino]-3-(4-isopropylbenzylthio)propionic acid]",120 nM
4,"C[C@H](CSC(=O)c1ccccc1)C(=O)N[C@@H](CSCc1ccc(C(C)(C)C)cc1)C(=O)O [Compound No. 1-11, (2R)-2-[(2S)-3-(Benzoylthio)-2-methylpropionylamino]-3-(4-tert-butylbenzylthio) propionic acid]",32 nM
5,"C[C@H](CSC(=O)c1ccccc1)C(=O)N[C@@H](CSCc1ccc(C(F)(F)F)cc1)C(=O)O [Compound No. 1-13, (2R)-2-[(2S)-3-(Benzoylthio)-2-methylpropionylamino]-3-(4-trifluoromethylbenzylthio)propionic acid]",100 nM
6,"CSc1ccc(CSC[C@H](NC(=O)[C@H](C)CSC(=O)c2ccccc2)C(=O)O)cc1 [Compound No. 1-16, (2R)-2-[(2S)-3-(Benzoylthio)-2-methylpropionylamino]-3-(4-methylthiobenzylthio)propionic acid]",110 nM
7,"C[C@H](CSC(=O)c1ccccc1)C(=O)N[C@@H](CSCc1ccc(OC(F)(F)F)cc1)C(=O)O [Compound No. 1-18, (2R)-2-[(2S)-3-(Benzoylthio)-2-methylpropionylamino]-3-(4-trifluoromethoxybenzylthio)propionic acid]",100 nM
8,"C[C@H](CSC(=O)c1ccccc1)C(=O)N[C@@H](CSCc1ccc(Cl)cc1)C(=O)O [Compound No. 1-23, (2R)-2-[(2S)-3-(Benzoylthio)-2-methylpropionylamino]-3-(4-chlorobenzylthio)propionic acid]",300 nM
9,"C[C@H](CSC(=O)c1ccccc1)C(=O)N[C@@H](CSCc1ccc(Br)cc1)C(=O)O [Compound No. 1-24, (2R)-2-[(2S)-3-(Benzoylthio)-2-methylpropionylamino]-3-(4-bromobenzylthio)propionic acid]",310 nM
10,"C[C@H](CSC(=O)c1ccccc1)C(=O)N[C@@H](CSCc1ccc(I)cc1)C(=O)O [Compound No. 1-25, (2R)-2-[(2S)-3-(Benzoylthio)-2-methylpropionylamino]-3-(4-iodobenzylthio)propionic acid]",51 nM
11,"C[C@H](CSC(=O)c1ccccc1)C(=O)N[C@@H](CSCc1ccc(S(C)(=O)=O)cc1)C(=O)O [Compound No. 1-26, (2R)-2-[(2S)-3-(Benzoylthio)-2-methylpropionylamino]-3-(4-methylsulfonylbenzylthio)propionic acid]",200 nM
12,"C[C@H](CSC(=O)c1ccccc1)C(=O)N[C@@H](CSCc1ccc([N+](=O)[O-])cc1)C(=O)O [Compound No. 1-28, (2R)-2-[(2S)-3-(Benzoylthio)-2-methylpropionylamino]-3-(4-nitrobenzylthio)propionic acid]",290 nM
13,"CCc1ccc(CSC[C@H](NC(=O)[C@H](C)CS)C(=O)O)cc1 [Compound No. 2-8, (2R)-3-(4-Ethylbenzylthio)-2-[(2S)-3-mercapto-2-methylpropionylamino]propionic acid]",280 nM
14,"CCCc1ccc(CSC[C@H](NC(=O)[C@H](C)CS)C(=O)O)cc1 [Compound No. 2-9, (2R)-2-[(2S)-3-Mercapto-2-methylpropionylamino]-3-(4-propylbenzylthio)propionic acid]",72 nM
15,"CC(C)c1ccc(CSC[C@H](NC(=O)[C@H](C)CS)C(=O)O)cc1 [Compound No. 2-10, (2R)-3-(4-Isopropylbenzylthio)-2-[(2S)-3-mercapto-2-methylpropionylamino]propionic acid]",200 nM
16,"C[C@H](CS)C(=O)N[C@@H](CSCc1ccc(C(C)(C)C)cc1)C(=O)O [Compound No. 2-11, (2R)-3-(4-tert-Butylbenzylthio)-2-[(2S)-3-mercapto-2-methylpropionylamino]propionic acid]",24 nM
17,"CC(CS)C(=O)N[C@@H](CSCc1ccc(C(C)(C)C)cc1)C(=O)O (stereo partly drawn) [Compound No. 2-12, (2R)-3-(4-tert-Butylbenzylthio)-2-[(2RS)-3-mercapto-2-5 methylpropionylamino]propionic acid]",58 nM
18,"C[C@H](CS)C(=O)N[C@@H](CSCc1ccc(C(F)(F)F)cc1)C(=O)O [Compound No. 2-13, (2R)-2-[(2S)-3-Mercapto-2-methylpropionylamino]-3-(4-trifluoromethylbenzylthio)propionic acid]",140 nM
19,"CSc1ccc(CSC[C@H](NC(=O)[C@H](C)CS)C(=O)O)cc1 [Compound No. 2-16, (2R)-2-[(2S)-3-Mercapto-2-methylpropionylamino]-3-(4-methylthiobenzylthio)propionic acid]",46 nM
20,"C[C@H](CS)C(=O)N[C@@H](CSCc1ccc(I)cc1)C(=O)O [Compound No. 2-25, (2R)-3-(4-Iodobenzylthio)-2-[(2S)-3-mercapto-2-methylpropionylamino]propionic acid]",15 nM
21,"C[C@H](CS)C(=O)N[C@@H](CSCc1ccc(S(C)(=O)=O)cc1)C(=O)O [Compound No. 2-26, (2R)-2-[(2S)-3-Mercapto-2-methylpropionylamino]-3-(4-methylsulfonylbenzylthio)propionic acid]",160 nM
22,"CC(C)c1ccc(C(C)SC[C@H](NC(=O)[C@H](C)CS)C(=O)O)cc1 (stereo partly drawn) [Compound No. 2-30, (2R)-2-[(2S)-3-Mercapto-2-methylpropionylamino]-3-[(α-methyl-4-isopropyl)benzylthio]propionic acid]",55 nM
23,"CC(C)c1ccc(C(C)(C)SC[C@H](NC(=O)[C@H](C)CS)C(=O)O)cc1 [Compound No. 2-32, (2R)-2-[(2S)-3-Mercapto-2-methylpropionylamino]-3-[(α,α-dimethyl-4-isopropyl)benzylthio]propionic acid]",25 nM
24,"CCC(SC[C@H](NC(=O)[C@H](C)CS)C(=O)O)c1ccc(C(C)C)cc1 (stereo partly drawn) [Compound No. 2-33, (2R)-3-[(α-Ethyl-4-isopropyl)benzylthio]-2-[(2S)-3-mercapto-2-methylpropionylamino]propionic acid]",67 nM
25,"CC(SC[C@H](NC(=O)[C@H](C)CS)C(=O)O)c1ccc(C(C)(C)C)cc1 (stereo partly drawn) [Compound No. 2-34, (2R)-3-[(4-tert-Butyl-α-methyl)benzylthio]-2-[(2R)-3-mercapto-2-methylpropionylamino]propionic acid]",68 nM
26,"C[C@H](CS)C(=O)N[C@@H](CSCc1ccc(C2CCCCC2)cc1)C(=O)O [Compound No. 2-35, (2R)-3-(4-Cyclohexylbenzylthio)-2-[(2S)-3-mercapto-2-methylpropionylamino]propionic acid]",79 nM
27,"C[C@H](CS)C(=O)N[C@@H](CSC(C)(C)c1ccc(C2CCCCC2)cc1)C(=O)O [Compound No. 2-39, (2R)-3-[(4-Cyclohexyl-α,α-dimethyl)benzylthio]-2-[(2S)-3-mercapto-2-methylpropionylamino]propionic acid]",55 nM
